Results published in patent US7220553B2, “Use of Russell's viper venom-induced plasma factor Xa activity to monitor the activity of factor Xa inhibitors” (Sanofi-Aventis Deutschland GmbH, priority 1999, dated 2007).

Assays:
Type in all cases: biochemical
plasma [1] = test: APTT clotting time, RPR spiked in plasma
Description: (§1) • 2. Follow the reaction kinetically for 5 min. • C) Calculation: Measure the initial velocity, however, ignore the lag phase. In general measure the initial rate of the linear portion of the time course. Use initial rates of clinical samples at different time points and then compared to the pre-dosing control to calculate % inhibition. Various concentrations of the compound RPR spiked in plasma were assayed for PT, APTT and PVVT prolongation. […] RVV-X induced clotting time (RVVT) assay could be conveniently used for monitoring the effect of RPR on patient's endogenous plasma FXa.

plasma [2] = test: PT clotting time, RPR spiked in plasma
Description: as §1

endogenous plasma FXa = molecular target: T1, endogenous plasma FXa (Homo sapiens, UniProt P00742); test: Russell's viper venom-induced clotting time (RVVT), RPR spiked in plasma
T1 construct: monitoring the effect of RPR on patient's endogenous plasma FXa; from tissue
T1 sequence (P00742 235-488 limits assumed): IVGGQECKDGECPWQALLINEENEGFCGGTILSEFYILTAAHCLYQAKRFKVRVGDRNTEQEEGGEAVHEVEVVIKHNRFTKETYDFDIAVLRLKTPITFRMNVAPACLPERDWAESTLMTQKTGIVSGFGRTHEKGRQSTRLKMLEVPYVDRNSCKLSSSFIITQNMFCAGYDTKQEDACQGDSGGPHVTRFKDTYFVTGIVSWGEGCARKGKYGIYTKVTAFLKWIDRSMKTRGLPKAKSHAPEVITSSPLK
T1 sequence (P00742 41-179 partner limits assumed): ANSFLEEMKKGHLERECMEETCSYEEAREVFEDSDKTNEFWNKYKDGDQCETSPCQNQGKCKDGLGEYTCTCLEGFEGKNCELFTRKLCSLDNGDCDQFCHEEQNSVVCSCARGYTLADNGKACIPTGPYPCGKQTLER
Description: Dose-dependent clotting time prolongation curve from the compound methyl-3-(4′-N-oxopyridylphenoyl)-3-methyl-2-(m-amidinobenzyl)-propionate (hereinafter “RPR”) or the trifluoroacetate salt of RPR: • 1. Add 0.1 ml FXa buffer, 0.1 ml serial dilution of RPR, 0.1 ml normal pooled or patients plasma to the cuvette then 0.1 ml of RVV-Ca (MLA-800 dotter add this reagent automatically). • 2. Measure clotting time. • 3. Construct the dose-dependent clotting time prolongation curve. • 4. Calculate concentration for 2×RVVT
as §1

## COC(=O)C(Cc1cccc(C(=N)N)c1)C(C)C(=O)c1ccc(-c2cc[n+]([O-])cc2)cc1 (stereo not drawn) [RPR, methyl-3-(4′-N-oxopyridylphenoyl)-3-methyl-2-(m-amidinobenzyl)-propionate]
Plasma [1]; RPR 50 μg/ml spiked in plasma
  fold-change of APTT: 1.08 fold
Plasma [1]; RPR 166 μg/ml spiked in plasma
  fold-change of APTT: 1.41 fold
Plasma [1]; RPR 322 μg/ml spiked in plasma
  fold-change of APTT: 1.5 fold
Plasma [2]; RPR 50 μg/ml spiked in plasma
  fold-change of PT: 1.08 fold
Plasma [2]; RPR 166 μg/ml spiked in plasma
  fold-change of PT: 1.16 fold
Plasma [2]; RPR 322 μg/ml spiked in plasma
  fold-change of PT: 1.25 fold
Endogenous plasma FXa; RPR 50 μg/ml spiked in plasma
  fold-change of RVVT: 1.33 fold
Endogenous plasma FXa; RPR 166 μg/ml spiked in plasma
  fold-change of RVVT: 2.66 fold
Endogenous plasma FXa; RPR 322 μg/ml spiked in plasma
  fold-change of RVVT: 4.41 fold
